According to US6406900B1, “Flea protease proteins, nucleic acid molecules and uses thereof” (Heska Corporation, priority 1991, dated 2002):

Tested on: flea serine proteases
Assay: in vitro inhibition of flea protease activity
Assay type: biochemical
Source text: In one embodiment, a protease inhibitor that can be used in a composition of the present invention to treat an animal is identified by a method including the following steps: (a) identifying candidate (i.e., putative, possible) inhibitor compounds by testing the efficacy of one or more protease inhibitors (i) in vitro for their ability to inhibit flea protease activity and/or (ii) in a flea feeding assay for their ability to reduce the survival and/or fecundity of fleas by adding the inhibitors to the blood meal of a flea being maintained, for example, in a feeding system, such as that described by Wade et al., 1988, J. Med Entomol. 25, 186-190; and (b) testing the efficacy of the candidate inhibitor compounds in animals infested with fleas. […] Furthermore, candidate inhibitor compounds identified by the flea feeding assays can include not only desired compounds but also compounds that reduce the viability and/or fecundity of fleas due to general toxicity (e.g., affecting the mitochondria of fleas).

aprotinin
inhibition of flea serine proteases in the presence of serum proteins (in the presence of serum proteins, such as are found in the blood): does not work well
inhibition of flea serine proteases (in vitro): can inhibit at least some flea serine proteases in vitro
